Data: patent US20210177879A1, “VITAMIN D RECEPTOR AGONIST” (Guanghzou University of Chinese Medicine, priority 2018, published 2021)

Experiments:
VDR = test: Detection of acting target of monotropein: VDR expression (Western blot, immunohistochemistry); format: in vivo, Balb/c mice
Protocol: Experimental method: 90 Balb/c mice of 6-8 weeks were purchased from the Experimental Animal Center in Guangzhou University of Chinese Medicine, weighed about 18-22 g, and subjected to adaptive feeding for 10 days. Modeling was divided into three stages. In the first stage, except for the normal group of animals being given saline injection, each of the other animals were intraperitoneally injected with a carcinogen AOM (10 mg/kg), and given free access to 2% DSS water from the next day for 7 days, and then given access to replaced regular drinking water for 14 days. […] The diet, water drinking and body weights of the animals were recorded daily and DAI scores were made, and the animals were killed and harvested at the 10th week. […]
The animals were anesthetized and harvested, and the liver, spleen, thymus and testis were weighed to calculate the organ coefficient; the colon tissue was taken, measured with a ruler for the length, and measured with a vernier caliper for the thickness, and the number and size of tumors and degree of colonic ulceration and adhesion were recorded; respective tissues were cut into small pieces and fixed, and the remaining tissues were frozen and stored; and the fixed tissues were used for HE staining and immunohistochemistry.
(§1) A potential acting target of monotropein for interfering with the colon cancer was detected.

SRC = test: Detection of acting target of monotropein: SRC (Western blot); format: in vivo, Balb/c mice; conditions: colon of AOM/DSS mice
Protocol: Experimental method: 90 Balb/c mice of 6-8 weeks were purchased from the Experimental Animal Center in Guangzhou University of Chinese Medicine, weighed about 18-22 g, and subjected to adaptive feeding for 10 days. Modeling was divided into three stages. In the first stage, except for the normal group of animals being given saline injection, each of the other animals were intraperitoneally injected with a carcinogen AOM (10 mg/kg), and given free access to 2% DSS water from the next day for 7 days, and then given access to replaced regular drinking water for 14 days. In the second stage, the animals were given free access to 2% DSS water for 10 days, and then given access to replaced regular drinking water for 14 days. In the third stage, the animals were given free access to 2% DSS water for 10 days, and then given access to replaced regular drinking water for 11 days. The normal group was given access to regular drinking water throughout the experiment. The diet, water drinking and body weights of the animals were recorded daily and DAI scores were made, and the animals were killed and harvested at the 10th week. […]
as §1

[1] = tested on: AOM/DSS colon cancer model; test: AOM/DSS colon cancer model, Experiment 2 (colon length, thickness, tumors); format: in vivo, Balb/c mice; conditions: 2 mg/kg once a day
Protocol: Experimental method: 70 Balb/c mice of 6-8 weeks were purchased from the Experimental Animal Center in Guangzhou University of Chinese Medicine, weighed about 18-22 g, and subjected to adaptive feeding for 10 days. Modeling was divided into three stages. In the first stage, except for the normal group of animals being given saline injection, each of the other animals were intraperitoneally injected with a carcinogen AOM (10 mg/kg), and given free access to 2% DSS water from the next day for 7 days, and then given access to replaced regular drinking water for 14 days. In the second stage, the animals were given free access to 2% DSS water for 10 days, and then given access to replaced regular drinking water for 14 days. In the third stage, the animals were given free access to 2% DSS water for 10 days, and then given access to replaced regular drinking water for 11 days. The normal group was given access to regular drinking water throughout the experiment. The diet, water drinking and body weights of the animals were recorded daily and DAI scores were made, and the animals were killed and harvested at the 10th week. In this experiment, the animals were divided into groups and administrated on the first day of a modeling period of the second stage, where a total of 7 groups were set, each group including 10 animals. The first group was a blank control group (control) that was given access to drinking water by gavage; the second group was a model group (model), in which a total of 10 animals were given access to drinking water by gavage; the third group was a vitamin D3 positive administration control group (VD3, 0.2 mg/kg); and the fourth to seventh groups were given monotropein, desacetyl asperulosidic acid, asperuloside, and asperulosidic acid (groups labeled as: Mo, As, Aa, Da), respectively at a given dose of 2 mg/kg. Dosing was conducted once a day until the end of the experiment. At the end of the experiment, the animals were anesthetized and harvested, and the colon tissue was taken, measured with a ruler for the length, and measured with a vernier caliper for the thickness. The effects of monotropein, desacetyl asperulosidic acid, asperuloside and asperulosidic acid on expression of the vitamin D receptor were detected.

[2] = tested on: SW1990 breast cancer cells; test: In vitro proliferation inhibition of SW1990 breast cancer cells; format: cell-based; conditions: concentration of 1 uM; compared with blank control group
Protocol: (§2) The SW1990 cells were thawed, and cultured in a changed medium after 24 hours. Medium preparation method: 6% serum, 1% of a bispecific antibody+a 1640 basal medium. After grown to confluent, the cells were digested and subcultured to expand the number of cells. When reached the required amount, the cells were digested by trypsin, centrifuged, and resuspended in PBS to prepare a cell suspension of 1×10^8 cells/ml. A part of the cell suspension was added with the monotropein, desacetyl asperulosidic acid, asperuloside, and asperulosidic acid respectively, and the inhibition rate (%) of tumor cell proliferation by each of these different compounds was examined.

[3] = tested on: transplanted tumor of SW1990 breast cancer cells; test: Transplanted tumor of SW1990 breast cancer cells in nude mice; format: in vivo; conditions: 2 mg/kg in combination with 5-fluorouracil at half dose (20 mg/kg), once a day; effect comparable to 5-fluorouracil alone 40 mg/kg
Protocol: as §2
Male adult nude mice, which had the body weights of 20-24 g, were purchased from Guangdong Medical Laboratory Animal Center. After 7 days of adaptive feeding of the animals, except for the blank group, the remaining animals were injected with 0.2 ml of a SW1990 cell suspension in PBS at ventrodorsal and scapula sites of them, the response conditions of the animals were observed, and the body weights of the animals were determined once a week. After 2 weeks of observation, the animals were grouped into the following groups according to tumor size: a blank group; a model group; a 5-fluorouracil control group (5-Full, 40 mg/kg); monotropein+5-fluorouracil (2 mg/kg monotropein+20 mg/kg 5-fluorouracil), desacetyl asperulosidic acid+5-fluorouracil (2 mg/kg desacetyl asperulosidic acid+20 mg/kg 5-fluorouracil), asperuloside+5-fluorouracil (2 mg/kg asperuloside+20 mg/kg 5-fluorouracil), asperulosidic acid+5-fluorouracil (2 mg/kg asperulosidic acid+20 mg/kg 5-fluorouracil), these groups being labeled as: Mo, As, Aa, Da. Each group included 8 animals; and administration was conducted once a day.
The status, death conditions, and eating and drinking conditions of the animals were observed daily. The body weights of the animals were determined once a week and the tumor size of the animals was determined every 4 days. The tumor volume of the animals was determined by using a vernier caliper. After 1 month of administration, the animals were sacrificed after blood was sampled from the orbit thereof, and the tumor was separated and weighed.

`O=C(O)C1=CO[C@@H](O[C@@H]2O[C@H](CO)[C@@H](O)[C@H](O)[C@H]2O)[C@H]2[C@@H]1C=C[C@]2(O)CO` [monotropein] was tested, and the “expression of VDR, immunohistochemistry” value (VDR; colon cancerous sites of AOM/DSS mice) was “up-regulated the expression of VDR”, the “expression of intestinal VDR, Western blot” value (VDR; colon of AOM/DSS mice) was “mainly promoted the expression of intestinal VDR” and the “effect on SRC, Western blot” value (SRC) was “no significant effect”. For the same compound, the “incidence and development of colorectal cancers” value [1] was “inhibiting the incidence and development of colorectal cancers”, the “proliferation of SW1990 cells in vitro” value [2] was “significantly inhibit the proliferation” and the “tumor proliferation in SW1990 tumor-bearing mice” value [3] was “significantly inhibit tumor proliferation”.
